# Results published in ChEMBL document CHEMBL5665443, “Enzyme Inhibitor Single Concentration assay results for EUbOPEN Chemogenomics Library” (2024).
# What was measured:
# [1] = target: G/T mismatch-specific thymine DNA glycosylase (Homo sapiens) (UniProt Q13569); conditions: Compound Concentration 10.0 uM;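 note: human TDG cleavage of quenched duplex DNA oligonucleotides coupled to APE1, strand release read as fluorescence at 594 nm, inhibition of TDG activity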
# [2] = target: N-glycosylase/DNA lyase (Homo sapiens) (UniProt O15527); conditions: Compound Concentration 10.0 uM;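 note: OGG1 cleavage of a quenched duplex DNA oligonucleotide, coupled to APE1 for strand incision, read as fluorescence at 594 nm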
# Sequence of N-glycosylase/DNA lyase (Homo sapiens) (O15527 whole entry): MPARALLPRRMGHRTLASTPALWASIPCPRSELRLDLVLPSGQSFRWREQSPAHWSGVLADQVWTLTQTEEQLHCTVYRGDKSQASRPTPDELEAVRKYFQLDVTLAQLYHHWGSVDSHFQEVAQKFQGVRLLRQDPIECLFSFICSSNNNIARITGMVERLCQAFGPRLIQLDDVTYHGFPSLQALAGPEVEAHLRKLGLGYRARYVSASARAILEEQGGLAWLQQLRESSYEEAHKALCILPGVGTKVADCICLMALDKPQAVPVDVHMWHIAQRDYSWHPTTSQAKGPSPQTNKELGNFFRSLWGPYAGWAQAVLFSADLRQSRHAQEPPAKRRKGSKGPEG
# [3] = target: DNA-3-methyladenine glycosylase (Homo sapiens) (UniProt P29372); conditions: Compound Concentration 10.0 uM;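 note: enzyme assay where MPG cuts a quenched duplex DNA oligonucleotide probe, paired with APE1 for strand incision and turnover, read as fluorescence at 594 nm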
# Sequence of DNA-3-methyladenine glycosylase (Homo sapiens) (P29372 whole entry): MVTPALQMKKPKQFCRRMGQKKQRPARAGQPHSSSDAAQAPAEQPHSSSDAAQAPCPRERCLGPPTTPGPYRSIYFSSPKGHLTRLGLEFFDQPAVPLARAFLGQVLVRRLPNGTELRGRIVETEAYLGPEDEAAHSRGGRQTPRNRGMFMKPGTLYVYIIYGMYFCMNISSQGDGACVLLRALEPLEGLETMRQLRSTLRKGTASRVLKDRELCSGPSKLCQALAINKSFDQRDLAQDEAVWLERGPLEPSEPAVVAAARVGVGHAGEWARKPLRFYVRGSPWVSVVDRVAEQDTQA
# [4] = target: T1, Adenine DNA glycosylase (Homo sapiens) (UniProt Q9UIF7); conditions: Compound Concentration 10.0 uM, Hit No;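 note: human MUTYH activity read as 594 nm fluorescence from cleavage and release of a quenched DNA duplex, coupled with APE1 for strand incision, lower signal meaning inhibition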
# T1 sequence (whole entry): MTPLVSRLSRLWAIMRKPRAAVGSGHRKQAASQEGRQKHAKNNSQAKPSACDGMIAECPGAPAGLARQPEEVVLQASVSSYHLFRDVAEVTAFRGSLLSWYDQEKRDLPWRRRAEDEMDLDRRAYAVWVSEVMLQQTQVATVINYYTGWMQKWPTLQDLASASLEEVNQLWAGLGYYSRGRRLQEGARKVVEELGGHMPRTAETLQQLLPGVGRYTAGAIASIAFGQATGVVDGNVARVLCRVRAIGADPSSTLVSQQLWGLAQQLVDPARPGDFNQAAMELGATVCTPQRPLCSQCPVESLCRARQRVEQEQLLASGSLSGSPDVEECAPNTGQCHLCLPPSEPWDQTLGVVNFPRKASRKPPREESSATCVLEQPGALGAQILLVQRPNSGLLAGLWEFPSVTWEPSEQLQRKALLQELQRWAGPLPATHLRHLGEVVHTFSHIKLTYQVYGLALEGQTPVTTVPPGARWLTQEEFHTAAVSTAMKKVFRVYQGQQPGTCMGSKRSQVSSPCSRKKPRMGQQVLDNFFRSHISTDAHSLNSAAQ
# [5] = target: Endonuclease 8-like 1 (Homo sapiens) (UniProt Q96FI4); conditions: Compound Concentration 10.0 uM, Hit No;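 note: fluorescence at 594 nm from quenched duplex DNA oligonucleotides released by NEIL1 cleavage and strand separation, reported as reduction of this enzyme activity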
# Sequence of Endonuclease 8-like 1 (Homo sapiens) (Q96FI4 whole entry, the tested form may be a part): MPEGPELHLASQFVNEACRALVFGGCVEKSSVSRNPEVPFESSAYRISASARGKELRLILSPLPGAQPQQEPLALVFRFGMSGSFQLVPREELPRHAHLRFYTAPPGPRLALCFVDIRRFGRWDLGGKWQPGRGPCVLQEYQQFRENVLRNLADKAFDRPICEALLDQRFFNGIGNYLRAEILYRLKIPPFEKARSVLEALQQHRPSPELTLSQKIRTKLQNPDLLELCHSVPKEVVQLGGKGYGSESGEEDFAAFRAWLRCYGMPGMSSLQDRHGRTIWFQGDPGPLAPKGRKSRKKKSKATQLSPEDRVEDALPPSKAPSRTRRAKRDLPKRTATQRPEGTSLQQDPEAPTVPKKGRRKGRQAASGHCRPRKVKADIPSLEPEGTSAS
# [6] = target: Methyl-CpG-binding domain protein 4 (Homo sapiens) (UniProt O95243); conditions: Compound Concentration 10.0 uM, Hit No;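 note: MBD4 activity read as fluorescence at 594 nm from cleavage and release of a quenched duplex DNA oligonucleotide, with APE1 coupled to incise the strand and raise turnover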
# Sequence of Methyl-CpG-binding domain protein 4 (Homo sapiens) (O95243 whole entry, the tested form may be a part): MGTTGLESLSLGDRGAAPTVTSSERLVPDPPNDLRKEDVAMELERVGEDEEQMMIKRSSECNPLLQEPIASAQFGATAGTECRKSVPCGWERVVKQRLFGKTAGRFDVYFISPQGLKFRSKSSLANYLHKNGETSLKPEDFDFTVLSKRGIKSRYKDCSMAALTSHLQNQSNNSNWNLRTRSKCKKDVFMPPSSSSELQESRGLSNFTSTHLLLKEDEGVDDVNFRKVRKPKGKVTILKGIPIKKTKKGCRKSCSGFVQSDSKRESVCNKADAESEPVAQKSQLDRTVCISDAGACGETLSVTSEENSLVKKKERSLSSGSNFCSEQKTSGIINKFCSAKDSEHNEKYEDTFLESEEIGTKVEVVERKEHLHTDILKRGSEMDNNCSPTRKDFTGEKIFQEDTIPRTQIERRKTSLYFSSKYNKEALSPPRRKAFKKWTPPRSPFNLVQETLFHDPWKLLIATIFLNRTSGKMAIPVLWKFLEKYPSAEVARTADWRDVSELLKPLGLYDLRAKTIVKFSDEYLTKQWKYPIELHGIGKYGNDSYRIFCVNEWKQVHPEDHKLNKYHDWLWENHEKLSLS
# [7] = target: T2, Single-strand selective monofunctional uracil DNA glycosylase (Homo sapiens) (UniProt Q53HV7); conditions: Compound Concentration 10.0 uM, Hit No;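 note: enzymatic SMUG1 assay coupled with APE1, reading fluorescence at 594 nm released when a quenched double-stranded DNA oligonucleotide substrate is cleaved and separated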
# T2 sequence (whole entry): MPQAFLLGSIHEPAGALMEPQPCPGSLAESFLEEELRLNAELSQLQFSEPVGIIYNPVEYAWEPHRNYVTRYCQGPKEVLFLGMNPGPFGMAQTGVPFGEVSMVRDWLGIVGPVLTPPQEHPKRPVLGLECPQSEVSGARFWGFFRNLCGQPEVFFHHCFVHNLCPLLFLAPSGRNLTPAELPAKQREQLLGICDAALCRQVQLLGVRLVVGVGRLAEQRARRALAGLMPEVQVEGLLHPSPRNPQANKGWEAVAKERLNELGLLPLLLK
# [8] = target: T3, Endonuclease 8-like 2 (Homo sapiens) (UniProt Q969S2); conditions: Compound Concentration 10.0 uM, Hit No;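 note: fluorescence at 594 nm reports NEIL2 cutting and release of a quenched double-stranded DNA oligo substrate, reduced signal read as inhibition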
# T3 sequence (whole entry): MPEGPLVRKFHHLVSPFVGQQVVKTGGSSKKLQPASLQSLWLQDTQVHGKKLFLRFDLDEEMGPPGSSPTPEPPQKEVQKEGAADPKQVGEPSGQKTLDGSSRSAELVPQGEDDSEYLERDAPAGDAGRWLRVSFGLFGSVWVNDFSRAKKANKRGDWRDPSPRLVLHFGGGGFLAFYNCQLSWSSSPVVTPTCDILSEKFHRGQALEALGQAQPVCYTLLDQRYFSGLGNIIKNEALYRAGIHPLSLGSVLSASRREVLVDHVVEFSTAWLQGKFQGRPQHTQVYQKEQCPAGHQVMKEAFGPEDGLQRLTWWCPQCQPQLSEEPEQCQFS
# [9] = target: Uracil-DNA glycosylase (Homo sapiens) (UniProt P13051); conditions: Compound Concentration 10.0 uM, Hit No;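 note: UNG excision on a quenched double-stranded DNA oligo probe, with APE1 added for strand incision and turnover, read as fluorescence at 594 nm as strands separate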
# Sequence of Uracil-DNA glycosylase (Homo sapiens) (P13051 whole entry): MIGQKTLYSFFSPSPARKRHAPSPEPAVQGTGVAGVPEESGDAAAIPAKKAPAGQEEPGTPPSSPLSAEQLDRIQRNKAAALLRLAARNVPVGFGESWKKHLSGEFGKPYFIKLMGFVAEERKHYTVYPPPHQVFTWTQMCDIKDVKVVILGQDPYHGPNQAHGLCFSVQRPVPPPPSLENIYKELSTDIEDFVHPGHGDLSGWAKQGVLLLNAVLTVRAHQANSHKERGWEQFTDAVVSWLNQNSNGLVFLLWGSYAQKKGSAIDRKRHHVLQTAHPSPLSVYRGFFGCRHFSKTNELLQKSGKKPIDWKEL
# Sequence of G/T mismatch-specific thymine DNA glycosylase (Homo sapiens) (Q13569 whole entry): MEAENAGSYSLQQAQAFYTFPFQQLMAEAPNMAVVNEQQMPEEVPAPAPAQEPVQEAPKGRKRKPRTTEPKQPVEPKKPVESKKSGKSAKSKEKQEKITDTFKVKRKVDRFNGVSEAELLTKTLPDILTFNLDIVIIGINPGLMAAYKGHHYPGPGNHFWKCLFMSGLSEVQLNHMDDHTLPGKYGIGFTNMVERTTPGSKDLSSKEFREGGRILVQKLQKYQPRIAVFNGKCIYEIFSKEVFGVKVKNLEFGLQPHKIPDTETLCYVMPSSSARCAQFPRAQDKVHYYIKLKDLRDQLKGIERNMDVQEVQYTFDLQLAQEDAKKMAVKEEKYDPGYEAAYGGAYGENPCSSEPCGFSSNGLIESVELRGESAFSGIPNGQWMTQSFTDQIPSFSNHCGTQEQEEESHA
smiles,measurement,setting,value
COc1cc(C(=O)N(CCCc2ccccc2)Cc2ccc(CC(=O)O)cc2)cc(OC)c1C,inhibition,[1]; Hit No,17.3%
same,inhibition,[2]; Hit No,-6.84%
same,inhibition,[3]; Hit No,2.65%
same,inhibition,[4],20.4%
same,inhibition,[5],-1.83%
same,inhibition,[6],21.5%
same,inhibition,[7],-4.44%
same,inhibition,[8],-7.97%
COc1cc(/C=C/C(=O)NCCn2c(C)cc3ccccc32)cc(OC)c1OC,inhibition,[1]; Hit No,15.6%
same,inhibition,[3]; Hit No,27.9%
same,inhibition,[4],6.04%
same,inhibition,[5],-9.62%
same,inhibition,[6],11.5%
same,inhibition,[9],-0.0662%
same,inhibition,[7],-8.26%
same,inhibition,[8],4.49%
COc1ccccc1/C=N/NC(=O)COc1ccc(Cl)cc1C,inhibition,[1]; Hit No,18.2%
same,inhibition,[2]; Hit No,2.66%
same,inhibition,[3]; Hit No,9.76%
same,inhibition,[4],10.8%
same,inhibition,[5],8.6%
same,inhibition,[6],18.4%
same,inhibition,[9],-5.19%
same,inhibition,[7],14%
same,inhibition,[8],-3.15%
C/C(=N\NC(=O)[C@@H]1C(=O)NC[C@H]1c1ccccc1)c1cccc(Br)c1,inhibition,[1]; Hit No,17.2%
same,inhibition,[2]; Hit No,-0.141%
same,inhibition,[3]; Hit No,-1.9%
same,inhibition,[4],11%
same,inhibition,[5],-1.98%
same,inhibition,[6],0.963%
same,inhibition,[9],-1.98%
same,inhibition,[7],9.22%
same,inhibition,[8],6.5%
CC(COc1ccccc1)N(CCCl)Cc1ccccc1 (configuration not stated),inhibition,[1]; Hit No,9.17%
same,inhibition,[2]; Hit Yes,41.7%
same,inhibition,[3]; Hit No,8.43%
same,inhibition,[4],20.2%
same,inhibition,[5],-3.32%
same,inhibition,[6],6.02%
same,inhibition,[7],-8.75%
same,inhibition,[8],5.01%
CC(C)NCC(O)COc1ccc(CCOCC2CC2)cc1 (configuration not stated),inhibition,[1]; Hit No,21.4%
same,inhibition,[2]; Hit No,-0.494%
same,inhibition,[3]; Hit No,-1.52%
same,inhibition,[4],-5.48%
same,inhibition,[5],-5.99%
same,inhibition,[6],4.74%
same,inhibition,[9],-7.33%
same,inhibition,[7],5.49%
same,inhibition,[8],-0.983%
CCCc1nc2c(C)cc(-c3nc4ccccc4n3C)cc2n1Cc1ccc(-c2ccccc2C(=O)O)cc1,inhibition,[1]; Hit No,18.9%
same,inhibition,[3]; Hit No,-0.129%
same,inhibition,[4],24.6%
same,inhibition,[5],15.1%
same,inhibition,[6],15.7%
same,inhibition,[9],-6.03%
same,inhibition,[7],3.75%
same,inhibition,[8],15.5%
COc1cc2nc(N3CCN(C(=O)c4ccco4)CC3)nc(N)c2cc1OC,inhibition,[1]; Hit No,4.76%
same,inhibition,[2]; Hit No,0.771%
same,inhibition,[3]; Hit No,11.1%
same,inhibition,[4],14%
same,inhibition,[5],5.73%
same,inhibition,[6],7.24%
same,inhibition,[9],-8.11%
same,inhibition,[7],-2.6%
same,inhibition,[8],10%
CCCCC#Cc1nc(NC)c2ncn([C@@H]3O[C@H](CO)[C@@H](O)[C@H]3O)c2n1,inhibition,[1]; Hit No,-7.72%
same,inhibition,[2]; Hit No,-7.52%
same,inhibition,[3]; Hit No,-9.85%
same,inhibition,[4],-0.235%
same,inhibition,[5],-4.5%
same,inhibition,[6],0.324%
same,inhibition,[7],-0.13%
same,inhibition,[8],5.51%
O=C(Nc1ccc(Cl)nc1)c1ccc(Cl)cc1,inhibition,[1]; Hit No,21.2%
same,inhibition,[2]; Hit No,6.76%
same,inhibition,[3]; Hit No,18.7%
same,inhibition,[4],26.6%
same,inhibition,[5],6.68%
same,inhibition,[6],19.3%
same,inhibition,[9],1.37%
same,inhibition,[7],3.71%
same,inhibition,[8],5.25%
CCc1ccc(OCc2ccccc2C(=O)Nc2ccc3nc(C)cc(N)c3c2)cc1,inhibition,[1]; Hit Yes,82.5%
same,inhibition,[2]; Hit No,12.5%
same,inhibition,[3]; Hit Yes,71.5%
same,inhibition,[4],77.8%
same,inhibition,[5],-4.06%
same,inhibition,[6],43.2%
same,inhibition,[9],-2.29%
same,inhibition,[7],-3.13%
same,inhibition,[8],16.5%
COc1ccc(Br)cc1S(=O)(=O)NC(=O)/C=C/c1ccccc1Cc1ccc2ccccc2c1,inhibition,[1]; Hit No,2.91%
same,inhibition,[2]; Hit No,30.2%
same,inhibition,[3]; Hit No,-3.79%
same,inhibition,[4],5.65%
same,inhibition,[5],0.537%
same,inhibition,[6],18%
same,inhibition,[7],-2.31%
same,inhibition,[8],6.5%
COc1ccc2[nH]cc(CCNC(C)=O)c2c1,inhibition,[1]; Hit No,5.88%
same,inhibition,[2]; Hit No,-4.66%
same,inhibition,[3]; Hit No,-3.95%
same,inhibition,[4],19.4%
same,inhibition,[5],1.13%
same,inhibition,[6],-1.65%
same,inhibition,[9],-7.83%
same,inhibition,[7],-7.74%
same,inhibition,[8],1.51%
Cc1noc(-c2ccc(-c3ccc(CC(=O)O)cc3)cc2)c1NC(=O)O[C@H](C)c1ccccc1Cl,inhibition,[1]; Hit No,43.6%
same,inhibition,[2]; Hit No,10.8%
same,inhibition,[3]; Hit No,10.4%
same,inhibition,[4],53.1%
same,inhibition,[5],-3.47%
same,inhibition,[6],45.9%
same,inhibition,[9],-9.06%
same,inhibition,[7],-3.86%
same,inhibition,[8],-4.48%
Cc1nnc2n1-c1sc(CCC(=O)N3CCOCC3)cc1C(c1ccccc1Cl)=NC2,inhibition,[1]; Hit No,14.6%
same,inhibition,[2]; Hit No,0.211%
same,inhibition,[3]; Hit No,-4.33%
same,inhibition,[4],16.7%
same,inhibition,[5],5.28%
same,inhibition,[6],-1.19%
same,inhibition,[9],-6.5%
same,inhibition,[7],-7.88%
same,inhibition,[8],7.25%
CC(=O)Nc1nc2c(Oc3cc(-c4ccc(C(F)(F)F)cc4)ncn3)cccc2s1,inhibition,[1]; Hit No,-3.88%
same,inhibition,[3]; Hit No,11.2%
same,inhibition,[4],-8.12%
same,inhibition,[5],4.31%
same,inhibition,[6],1.85%
same,inhibition,[9],-3.19%
same,inhibition,[7],-4.87%
same,inhibition,[8],-1.88%
CCCCc1oc2ccccc2c1C(=O)c1cc(I)c(OCCN(CC)CC)c(I)c1,inhibition,[1]; Hit No,30.6%
same,inhibition,[2]; Hit No,0.672%
same,inhibition,[3]; Hit No,5.3%
same,inhibition,[4],-0.487%
same,inhibition,[6],28.2%
same,inhibition,[9],1.42%
same,inhibition,[7],15.3%
same,inhibition,[8],-6.36%
Cc1cc(-c2ccc3c(c2)CC[C@H]3N2CC3(CCN(C(=O)Cc4cn5cc(C)sc5n4)CC3)C2)ncn1,inhibition,[1]; Hit No,6.67%
same,inhibition,[2]; Hit No,-7.69%
same,inhibition,[3]; Hit No,-2.4%
same,inhibition,[4],0.491%
same,inhibition,[5],-1.18%
same,inhibition,[6],2.75%
same,inhibition,[9],-6.41%
same,inhibition,[7],-0.24%
NS(=O)(=O)c1cncc(-c2nc(NCc3ccccn3)c3c(-c4ccccc4)cccc3n2)c1,inhibition,[1]; Hit No,14.7%
same,inhibition,[3]; Hit No,0.0701%
same,inhibition,[4],8.92%
same,inhibition,[5],10.4%
same,inhibition,[6],16%
same,inhibition,[9],0.783%
same,inhibition,[7],7.73%
same,inhibition,[8],-1.88%
CC[C@@H]1C(=O)N(C)c2cnc(Nc3ccc(C(=O)NC4CCN(C)CC4)cc3OC)nc2N1C1CCCC1,inhibition,[1]; Hit No,69.8%
same,inhibition,[2]; Hit No,-5.59%
same,inhibition,[3]; Hit No,7.81%
same,inhibition,[4],38.1%
same,inhibition,[5],2.78%
same,inhibition,[6],33%
same,inhibition,[9],13.3%
same,inhibition,[7],23.4%
CC(C)N(CCCCOCC(=O)NS(C)(=O)=O)c1cnc(-c2ccccc2)c(-c2ccccc2)n1,inhibition,[1]; Hit No,51%
same,inhibition,[2]; Hit No,17.1%
same,inhibition,[3]; Hit No,55.8%
same,inhibition,[4],47.5%
same,inhibition,[5],9.29%
same,inhibition,[6],80.6%
same,inhibition,[7],-1.68%
same,inhibition,[8],6.75%
CCc1cc2c(c(CC)n1)CCC(=O)N2Cc1ccc(-c2ccccc2-c2nnn[nH]2)cc1,inhibition,[1]; Hit No,13.7%
same,inhibition,[2]; Hit No,6.16%
same,inhibition,[3]; Hit No,6.08%
same,inhibition,[4],24.1%
same,inhibition,[5],13.9%
same,inhibition,[6],2.76%
same,inhibition,[7],-8.27%
same,inhibition,[8],2.26%
Cc1cccc(S(=O)(=O)N(C)[C@H](C)CCN2CCC(C)CC2)c1,inhibition,[1]; Hit No,1.58%
same,inhibition,[3]; Hit No,-2.23%
same,inhibition,[4],9.55%
same,inhibition,[5],1.79%
same,inhibition,[6],3.33%
same,inhibition,[9],-5.83%
same,inhibition,[7],1.46%
same,inhibition,[8],6.53%
CN(C)c1ccnc2sc3c(=O)n(N4CCCCCC4)cnc3c12,inhibition,[1]; Hit No,5.33%
same,inhibition,[2]; Hit No,18.5%
same,inhibition,[3]; Hit No,2.57%
same,inhibition,[4],6.93%
same,inhibition,[5],7.65%
same,inhibition,[6],-2.87%
same,inhibition,[7],-6.77%
same,inhibition,[8],16%
CC(C)NC(=O)c1ccc(C#Cc2ccncc2)cn1,inhibition,[1]; Hit No,8.93%
same,inhibition,[2]; Hit No,2.41%
same,inhibition,[3]; Hit No,-5.61%
same,inhibition,[4],12.7%
same,inhibition,[5],7.51%
same,inhibition,[6],-1.07%
same,inhibition,[7],2.68%
same,inhibition,[8],5.76%
COc1c(Nc2ccc(S(C)(=O)=O)nc2C)ncnc1OC1CCN(C(=O)OC(C)C)CC1,inhibition,[1]; Hit No,-5.57%
same,inhibition,[2]; Hit No,-1.26%
same,inhibition,[3]; Hit No,-8.34%
same,inhibition,[4],16.4%
same,inhibition,[5],-6.28%
same,inhibition,[6],-6.99%
same,inhibition,[7],-7.64%
same,inhibition,[8],6%
